Measurements from the NIST ThermoML archive (doi:10.1021/je050116g).

Experiments:
[1] = 298.15 K; 101.33 kPa; Liquid
[2] = relative permittivity at various frequencies (dimensionless); xn = mol fraction of the nth substance listed; details: 298.15 K, 101.33 kPa, Liquid, Frequency=0.03 MHz, Parallel plate capacitor
[3] = xn = mol fraction of the nth substance listed; details: 298.15 K, 101.33 kPa, Liquid

CCCCO [butan-1-ol]
Details	mass density [kg/m3]
[1]	805.767

CCCCCCCCCCO [decan-1-ol]
Details	mass density [kg/m3]
[1]	826.421

CCCCCCCCCCO [decan-1-ol] + CCCCCCCCCCCC
Details	mass density, [3] [kg/m3]	relative permittivity, [2]
x1 = 0.001264	745.351	–
x1 = 0.001971	–	2.00974
x1 = 0.002235	745.401	–
x1 = 0.002902	–	2.01098
x1 = 0.003662	–	2.01199
x1 = 0.004525	–	2.01314
x1 = 0.00462	745.527	–
x1 = 0.005614	–	2.01459
x1 = 0.006788	–	2.01613
x1 = 0.007983	–	2.01764
x1 = 0.009268	–	2.0192
x1 = 0.01089	–	2.02107
x1 = 0.01183	745.934	–
x1 = 0.01283	–	2.02321
x1 = 0.01445	–	2.02492
x1 = 0.01654	–	2.027
x1 = 0.01864	–	2.029
x1 = 0.02121	–	2.03137
x1 = 0.02459	–	2.03426
x1 = 0.02958	–	2.03864
x1 = 0.0323	747.221	–
x1 = 0.03739	–	2.04514
x1 = 0.04685	–	2.05286
x1 = 0.05669	748.861	2.06088
x1 = 0.06704	–	2.06945
x1 = 0.07856	–	2.07915
x1 = 0.08334	750.666	–
x1 = 0.08846	–	2.08773
x1 = 0.1051	–	2.10262
x1 = 0.1069	752.273	–

CCCCCCCCCCCC [dodecane]
Details	mass density [kg/m3]
[1]	745.435

CCCCCCCCCCCC [dodecane] + CCCCCO
Details	mass density [kg/m3]	relative permittivity
[2], x2 = 0.000482	–	2.00767
[2], x2 = 0.001089	–	2.00844
[2], x2 = 0.001796	–	2.00932
[2], x2 = 0.002589	–	2.01032
[2], x2 = 0.00344	–	2.0114
[2], x2 = 0.004549	–	2.0128
[2], x2 = 0.005875	–	2.01448
[2], x2 = 0.007295	–	2.01623
[2], x2 = 0.009216	–	2.0185
[2], x2 = 0.01162	–	2.02114
[2], x2 = 0.0141	–	2.02365
[2], x2 = 0.01688	–	2.02629
[2], x2 = 0.0211	–	2.03003
[2], x2 = 0.02571	–	2.03388
[2], x2 = 0.03208	–	2.03903
[2], x2 = 0.03962	–	2.045
[2], x2 = 0.04963	–	2.05298
[2], x2 = 0.05931	–	2.0609
[2], x2 = 0.07029	–	2.07011
[2], x2 = 0.08177	–	2.08023
[2], x2 = 0.09402	–	2.09162
[2], x2 = 0.1068	–	2.10429
[3], x2 = 0.00199	745.463	–
[3], x2 = 0.00476	745.503	–
[3], x2 = 0.00753	745.546	–
[3], x2 = 0.01643	745.714	–
[3], x2 = 0.02691	745.951	–
[3], x2 = 0.03525	746.159	–
[3], x2 = 0.05055	746.571	–
[3], x2 = 0.06514	746.983	–
[3], x2 = 0.08115	747.444	–
[3], x2 = 0.09931	747.979	–

CCCCCCCCCCCC [dodecane] + CCCCO
Details	mass density [kg/m3]	relative permittivity
[2], x2 = 0.000394	–	2.00775
[2], x2 = 0.001092	–	2.00861
[2], x2 = 0.001852	–	2.00955
[2], x2 = 0.002663	–	2.01056
[2], x2 = 0.003575	–	2.01169
[2], x2 = 0.004582	–	2.01295
[2], x2 = 0.005742	–	2.01438
[2], x2 = 0.007082	–	2.016
[2], x2 = 0.008478	–	2.01762
[2], x2 = 0.009996	–	2.0193
[2], x2 = 0.01196	–	2.02134
[2], x2 = 0.01472	–	2.02405
[2], x2 = 0.01783	–	2.02693
[2], x2 = 0.02067	–	2.02939
[2], x2 = 0.0262	–	2.03399
[2], x2 = 0.03349	–	2.03984
[2], x2 = 0.04201	–	2.04663
[2], x2 = 0.05197	–	2.05466
[2], x2 = 0.06201	–	2.06298
[2], x2 = 0.07269	–	2.07228
[2], x2 = 0.08613	–	2.08475
[2], x2 = 0.09876	–	2.09732
[3], x2 = 0.00247	745.45	–
[3], x2 = 0.00337	745.455	–
[3], x2 = 0.00504	745.466	–
[3], x2 = 0.0089	745.497	–
[3], x2 = 0.01274	745.535	–
[3], x2 = 0.01568	745.569	–
[3], x2 = 0.02553	745.703	–
[3], x2 = 0.04126	745.979	–
[3], x2 = 0.06044	746.372	–
[3], x2 = 0.07754	746.736	–
[3], x2 = 0.1034	747.278	–

CCCCCCCCCCCC [dodecane] + CCCO
Details	mass density [kg/m3]	relative permittivity
[2], x2 = 0.001113	–	2.00841
[2], x2 = 0.001805	–	2.00926
[2], x2 = 0.00262	–	2.01026
[2], x2 = 0.003582	–	2.01146
[2], x2 = 0.004766	–	2.01292
[2], x2 = 0.006045	–	2.01449
[2], x2 = 0.00741	–	2.01613
[2], x2 = 0.00918	–	2.01815
[2], x2 = 0.01131	–	2.0204
[2], x2 = 0.01408	–	2.02313
[2], x2 = 0.01818	–	2.02685
[2], x2 = 0.0234	–	2.03119
[2], x2 = 0.02953	–	2.03612
[2], x2 = 0.03486	–	2.04033
[2], x2 = 0.04243	–	2.04635
[2], x2 = 0.05033	–	2.05272
[2], x2 = 0.06022	–	2.06108
[2], x2 = 0.07048	–	2.07019
[2], x2 = 0.08292	–	2.08206
[2], x2 = 0.09516	–	2.09474
[2], x2 = 0.11	–	2.11157
[3], x2 = 0.00273	745.43	–
[3], x2 = 0.00429	745.426	–
[3], x2 = 0.007	745.424	–
[3], x2 = 0.01162	745.429	–
[3], x2 = 0.0181	745.456	–
[3], x2 = 0.0248	745.504	–
[3], x2 = 0.04304	745.689	–
[3], x2 = 0.06062	745.916	–
[3], x2 = 0.07866	746.164	–
[3], x2 = 0.1025	746.495	–

CCCCCCCCCCCC [dodecane] + CCO
Details	mass density [kg/m3]	relative permittivity
[2], x2 = 0.000779	–	2.00812
[2], x2 = 0.001608	–	2.00915
[2], x2 = 0.002571	–	2.01035
[2], x2 = 0.003578	–	2.0116
[2], x2 = 0.004642	–	2.01293
[2], x2 = 0.005982	–	2.01453
[2], x2 = 0.007701	–	2.01653
[2], x2 = 0.009387	–	2.0184
[2], x2 = 0.01111	–	2.02022
[2], x2 = 0.01308	–	2.02209
[2], x2 = 0.01589	–	2.02461
[2], x2 = 0.02008	–	2.02815
[2], x2 = 0.02502	–	2.03214
[2], x2 = 0.03098	–	2.03689
[2], x2 = 0.03829	–	2.04274
[2], x2 = 0.04601	–	2.04907
[2], x2 = 0.055	–	2.05682
[2], x2 = 0.06553	–	2.06649
[2], x2 = 0.07632	–	2.07716
[2], x2 = 0.08814	–	2.08986
[2], x2 = 0.1017	–	2.10596
[3], x2 = 0.00284	745.404	–
[3], x2 = 0.0035	745.397	–
[3], x2 = 0.00482	745.386	–
[3], x2 = 0.0076	745.363	–
[3], x2 = 0.01169	745.338	–
[3], x2 = 0.01342	745.329	–
[3], x2 = 0.0189	745.313	–
[3], x2 = 0.02678	745.305	–
[3], x2 = 0.04127	745.348	–
[3], x2 = 0.06055	745.432	–
[3], x2 = 0.08084	745.514	–
[3], x2 = 0.09645	745.601	–
